According to patent US20250127787A1, “METHODS FOR TREATING PERIPHERAL NEUROPATHY” (University of Pittsburgh - Of the Commonwealth System of …, priority 2021, published 2025):
Entries after “also recorded” stand apart in the source; their conditions may differ.

Columns and labels:
[1] = test system: sciatic nerve-crush rats; experiment: Von Frey sensory testing after sciatic nerve crush; assay type: in vivo, rat; details: hindpaw footpad, day 2 and day 5 post injury, 8-AG 5 mg/kg/day in drinking water
Description: Animals. This study employed female Harlan Sprague Dawley (HSD) rats (3-4 mo; Envigo, Indianapolis, IN) and were divided into the following groups: 1) Control, 2) Sciatic nerve crush (day 0, sacrifice on day 6); 3) 8-aminoguanine (8-AG; 5 mg/kg/day in drinking water; beginning 2 weeks prior to nerve crush and continuing until sacrifice (day 6)). The dose of 8-AG is based on the work above and published experiments. Further, the water consumption/day was tracked. […] All tissues (hindpaw epidermis) were removed from isoflurane anesthetized rats and the tissue was used for various experimental approaches as described below. At the end of tissue removal, animals were sacrificed by thoracotomy.
Von Frey sensory testing. Control, sciatic nerve crush (one of the most common models of peripheral nerve injury in rodents) and 8-AG-treated sciatic nerve-crush rats were placed in an elevated chamber on a wire mesh floor and after acclimatization, calibrated von Frey microfilaments were applied to determine paw withdrawal threshold (PWT, in grams). Briefly, microfilaments (Stoelting Corp, USA) were applied with different forces perpendicularly to the plantar surface of both ipsilateral and contralateral hindpaw by increasing and decreasing stimulus intensity. […]

[2] = test system: isolated mitochondria from spinal cord (L3-L5) homogenates; experiment: Mitochondrial respiration (respiratory control ratio) in CYP-CIPN rat spinal cord; assay type: in vivo; details: oral 8-AG
Description: (§1) Animals. This study employed female Harlan Sprague Dawley (HSD) rats (3-4 mo; Envigo, Indianapolis, IN) and were divided into the following groups: 1) Control, 2) Cyclophosphamide (CYP, 75 mg/kg i.p. in saline vehicle; administered on days 0, 3 and 6); 3) 8-aminoguanine (8-AG; 5 mg/kg/day in drinking water; beginning 2 weeks prior to CYP and continuing until sacrifice (day 8)). The dose of 8-AG is based on our preliminary and published experiments. […] The investigation conforms to the Guide for the Care and Use of Laboratory Animals published by the US National Institutes of Health (NIH Publication No. 85-23, revised 1996). In addition, all tissues (dorsal root ganglion, spinal cord, peripheral nerves and hindpaw epidermis) were removed from isoflurane anesthetized rats and the tissue was used for various experimental approaches as described below. At the end of tissue removal, animals were sacrificed by thoracotomy.
Mitochondrial Respiration. Homogenates (peripheral nerve and/or spinal cord) were used to measure mitochondrial respiration. Mitochondria were isolated as described earlier with modifications. […] The respiratory control ratio (RCR), a measure of the “tightness of coupling” between electron transport and oxidative phosphorylation, was determined from ratio of state 3 to state 4 rates of respiration. […]

[3] = test system: PGP 9.5; experiment: PGP 9.5 immunocytochemistry of CYP-CIPN rat epidermis (nerve terminals, edema); assay type: in vivo; details: fluorescent images, oral 8-AG
Description: as §1
Immunocytochemistry: A portion of tissues (a 3 mm biopsy from the rat hindpaw food pad or epidermis) is placed overnight in fixative (4% PFA) and cryoprotected (30% sucrose-phosphate buffered saline). Fluorescence immunocytochemistry was used to process cross-sections (20 μm) using antibodies (validated in rat tissue) against PGP 9.5 (Invitrogen PA5-29012, neuron specific protein; 1:500 dilution). […]

Nc1nc2[nH]c(N)nc2c(=O)[nH]1 [8-AG, 8-Aminoguanine]
effect on injury-induced increase in sensitivity to mechanical stimuli (paw withdrawal threshold) [1]: restored to control values; also recorded: normalized
effect on injury-induced increase in sensitivity to mechanical stimuli (paw withdrawal threshold) ([1]; listed as 8-Aminoguanine): normalized
effect on CYP-induced decrease in respiratory control ratio (RCR) [2]: reversed to values similar to Control; also recorded: prevented
effect on CYP-induced gross edema [3]: normalized
effect on CYP-induced neural damage (ragged/damaged fine nerve terminals, PGP 9.5 distribution) [3]: normalized
